pIC50: −log10 of the molar value.
Columns and labels:
PIK3CB (Human) = PIK3CB (Human) (UniProt P42338); assay: Inhibition of PIK3CB Kinase Activity
PIK3CA (human) = PIK3CA (human) (UniProt P42336); assay: Inhibition of PIK3CA Kinase Activity
Chain of PIK3CA (human) (P42336 whole entry, looked up): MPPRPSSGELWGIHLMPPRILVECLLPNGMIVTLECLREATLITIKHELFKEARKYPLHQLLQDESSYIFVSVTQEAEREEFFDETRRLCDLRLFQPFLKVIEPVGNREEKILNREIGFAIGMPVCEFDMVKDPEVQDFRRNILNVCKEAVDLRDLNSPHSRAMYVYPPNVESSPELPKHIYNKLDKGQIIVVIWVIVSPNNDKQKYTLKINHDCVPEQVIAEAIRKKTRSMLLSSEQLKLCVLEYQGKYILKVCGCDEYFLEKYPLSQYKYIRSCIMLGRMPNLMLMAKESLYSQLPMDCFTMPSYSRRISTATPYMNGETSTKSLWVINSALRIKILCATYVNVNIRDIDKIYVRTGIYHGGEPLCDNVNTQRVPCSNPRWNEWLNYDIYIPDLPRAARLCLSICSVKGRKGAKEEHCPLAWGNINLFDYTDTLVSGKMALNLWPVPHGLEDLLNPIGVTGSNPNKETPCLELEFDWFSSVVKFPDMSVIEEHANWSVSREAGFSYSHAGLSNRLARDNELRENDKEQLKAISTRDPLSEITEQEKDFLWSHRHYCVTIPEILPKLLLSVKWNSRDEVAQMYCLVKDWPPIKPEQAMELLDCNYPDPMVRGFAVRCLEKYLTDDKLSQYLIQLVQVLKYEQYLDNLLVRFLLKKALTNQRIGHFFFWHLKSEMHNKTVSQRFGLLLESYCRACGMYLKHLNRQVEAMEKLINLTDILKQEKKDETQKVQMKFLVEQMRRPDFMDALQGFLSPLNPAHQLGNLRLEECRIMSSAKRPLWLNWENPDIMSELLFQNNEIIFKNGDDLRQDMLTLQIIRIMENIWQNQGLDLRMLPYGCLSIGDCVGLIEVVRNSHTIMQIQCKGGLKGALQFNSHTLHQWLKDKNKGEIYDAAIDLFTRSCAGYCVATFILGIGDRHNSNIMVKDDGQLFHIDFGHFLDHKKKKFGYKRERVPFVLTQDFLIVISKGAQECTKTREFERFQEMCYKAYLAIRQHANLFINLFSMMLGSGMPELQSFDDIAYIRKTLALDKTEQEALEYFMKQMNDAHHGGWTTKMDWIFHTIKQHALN

Chain of PIK3CB (Human) (P42338 whole entry, looked up): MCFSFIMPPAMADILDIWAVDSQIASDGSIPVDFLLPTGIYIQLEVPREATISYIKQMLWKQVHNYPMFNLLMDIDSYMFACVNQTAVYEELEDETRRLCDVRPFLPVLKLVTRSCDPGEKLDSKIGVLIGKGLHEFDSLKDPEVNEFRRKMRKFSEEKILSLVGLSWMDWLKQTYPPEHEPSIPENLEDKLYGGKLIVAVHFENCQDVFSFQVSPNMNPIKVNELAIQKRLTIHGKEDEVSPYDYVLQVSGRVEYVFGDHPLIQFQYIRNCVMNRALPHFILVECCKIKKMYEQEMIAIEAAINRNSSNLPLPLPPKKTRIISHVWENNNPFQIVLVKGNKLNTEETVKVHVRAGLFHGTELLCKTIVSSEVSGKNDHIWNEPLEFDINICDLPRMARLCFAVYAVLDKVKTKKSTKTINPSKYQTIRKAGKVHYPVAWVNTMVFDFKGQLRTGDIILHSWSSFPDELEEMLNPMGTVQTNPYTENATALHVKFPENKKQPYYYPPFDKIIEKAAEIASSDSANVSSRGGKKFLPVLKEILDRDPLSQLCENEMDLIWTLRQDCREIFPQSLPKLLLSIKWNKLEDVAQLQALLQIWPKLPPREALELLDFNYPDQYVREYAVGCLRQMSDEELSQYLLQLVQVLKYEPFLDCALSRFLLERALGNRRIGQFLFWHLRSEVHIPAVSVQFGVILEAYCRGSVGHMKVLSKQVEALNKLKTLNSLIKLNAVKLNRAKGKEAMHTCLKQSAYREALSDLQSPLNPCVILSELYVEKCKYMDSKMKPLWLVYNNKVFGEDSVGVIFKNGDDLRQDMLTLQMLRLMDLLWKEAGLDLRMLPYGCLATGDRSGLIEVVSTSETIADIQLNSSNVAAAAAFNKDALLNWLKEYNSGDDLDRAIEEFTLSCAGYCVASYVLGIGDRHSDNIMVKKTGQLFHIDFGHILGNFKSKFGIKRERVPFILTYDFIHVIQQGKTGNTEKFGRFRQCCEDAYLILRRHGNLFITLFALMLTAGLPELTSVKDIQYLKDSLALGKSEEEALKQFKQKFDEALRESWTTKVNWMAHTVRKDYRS

SMILES | pIC50 (PIK3CB (Human)) | pIC50 (PIK3CA (human))
COc1ccc(COc2nccc(-c3ccc4nc(NC(C)=O)sc4c3)n2)cc1 | 4.88 | –
CC(=O)Nc1nc2ccc(-c3ccnc(N4CCC[C@@H]4c4ccccc4C)n3)cc2s1 | 6.11 | 5.81
CC(=O)Nc1nc2ccc(-c3ccnc(OCCCN4CCOCC4)n3)cc2s1 | 4.96 | –
CC(=O)Nc1nc2ccc(-c3cnc(Cl)c(OC4CCOC4)c3)cc2s1 (stereo not drawn) | 5.54 | 6.77
CC(=O)Nc1nc2ccc(-c3ccnc(N4CCC[C@@H]4c4ccccc4)n3)cc2s1 | 5.79 | 5.58

Continued by rising pIC50 (PIK3CB (Human)), values first:

pIC50 (PIK3CB (Human)) | pIC50 (PIK3CA (human)) | SMILES
4.88 | – | COc1cc(-c2ccc3nc(NC(C)=O)sc3c2)cnc1Br
4.88 | – | CC(=O)Nc1nc2ccc(-c3cccc(N)c3)nc2s1
4.88 | – | CC(=O)Nc1nc2ccc(-c3cnc(Cl)c(F)c3)cc2s1
6.33 | 7.36 | CC(=O)Nc1nc2ccc(-c3cnc(Cl)c(OC(C)C)c3)cc2s1
